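Five compound concentrations were applied to cells in 96-well plates for 48 hours; endpoints were derived by simple linear interpolation of the resulting dose-response curve. At the TGI there is no net growth.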
How the values were obtained:
Assay in all cases: NCI tumour cell line growth inhibition, 48 h
UO-31 renal = tested on: UO-31 renal
RXF 393 renal = tested on: RXF 393 renal
SF-539 CNS = tested on: SF-539 CNS
SF-268 CNS = tested on: SF-268 CNS
COLO 205 colon = tested on: COLO 205 colon
HOP-62 NSCLC = tested on: HOP-62 NSCLC
TK-10 renal = tested on: TK-10 renal
NCI-H23 lung = tested on: NCI-H23 lung
PC-3 prostate = tested on: PC-3 prostate
M14 melanoma = tested on: M14 melanoma
HCT-15 colon = tested on: HCT-15 colon
NCI-H522 lung = tested on: NCI-H522 lung

| Structure (SMILES) | TGI (UO-31 renal) [µM] | TGI (RXF 393 renal) [µM] | TGI (SF-539 CNS) [µM] | TGI (SF-268 CNS) [µM] | TGI (COLO 205 colon) [µM] | TGI (HOP-62 NSCLC) [µM] | TGI (TK-10 renal) [µM] | TGI (NCI-H23 lung) [µM] | TGI (PC-3 prostate) [µM] | TGI (M14 melanoma) [µM] | TGI (HCT-15 colon) [µM] | TGI (NCI-H522 lung) [µM] |
| --- | --- | --- | --- | --- | --- | --- | --- | --- | --- | --- | --- | --- |
| CCCCCC(=O)OC[n+]1ccc(-c2c(COC(=O)NC(C)C)c(COC(=O)NC(C)C)c3n2CCC3)cc1 | > 100 | > 100 | > 100 | > 100 | > 100 | > 100 | > 100 | > 100 | > 100 | > 100 | > 100 | > 100 |
| COc1ccc(-c2c3c(n(C4OC(COC(C)=O)C(OC(C)=O)C(OC(C)=O)C4OC(C)=O)c(=S)c2C#N)CCCC3)cc1 (stereo unspecified) | > 100 | 88.7 | > 100 | > 100 | > 100 | > 100 | > 100 | > 100 | 66.7 | > 100 | > 100 | > 100 |
| Cc1nc2c(ccc3[nH]c4ccccc4c32)s1 | 74.8 | > 100 | > 100 | > 100 | 37.8 | 40 | 78.1 | 91.7 | 47.9 | 50.2 | 51.9 | 35 |
| CCN(CC)C(=O)CCNC(C)Cc1c[nH]c2ccccc12 (stereo unspecified) | > 100 | > 100 | > 100 | > 100 | > 100 | > 100 | > 100 | > 100 | > 100 | > 100 | > 100 | > 100 |
| CCOC(=O)C1=CN(Cc2ccccc2)C2ON=C(c3ccc(Cl)cc3)C2C1 (stereo unspecified) | 52.5 | > 67.6 | > 68.2 | > 66.3 | > 64.1 | > 67.7 | > 81.3 | > 66.8 | > 53.5 | > 66.9 | > 47.2 | > 49.6 |
| COC(=O)C1=C(C(=O)OC)C2CCC1CC2=O (stereo unspecified) | > 100 | > 100 | > 100 | > 100 | > 100 | > 100 | > 100 | > 100 | > 100 | > 100 | > 100 | > 100 |
| O=C1CN2CCN(CC2)CC(=O)Nc2ccc(cc2)S(=O)(=O)c2ccc(cc2)NC(=O)CN2CCN(CC2)CC(=O)Nc2ccc(cc2)S(=O)(=O)c2ccc(cc2)N1 | > 100 | > 100 | 49.2 | 38.7 | > 100 | > 93.6 | > 100 | > 90.4 | > 100 | > 78.6 | 30.7 | 22.1 |
| O=CC1C(=O)Nc2nc3ccccc3n2C1c1ccccc1 (stereo unspecified) | 27.4 | 16 | 44.6 | 27 | 26.2 | 20.2 | 71.6 | 53.5 | 42.4 | 34 | 37 | 26.3 |
| COc1ccc2oc(=O)c(-c3nc4ccccc4s3)cc2c1 | > 41.6 | 31 | 13.7 | > 100 | > 100 | > 48.1 | > 100 | > 63.9 | > 100 | > 58.3 | > 100 | > 100 |
| Nc1nc(=O)n(C2CC(O)C(CO)O2)c2nc(-c3ccc(-c4ccccc4)cc3)cnc12 (stereo unspecified) | > 100 | > 100 | > 100 | 79 | > 100 | 82.9 | > 100 | > 100 | > 100 | > 100 | > 100 | 48.9 |
| C[C@H](OC(=O)/C=C/c1ccc(O)c(O)c1)[C@H](C)OC(=O)/C=C/c1ccc(O)c(O)c1 | 21.9 | 28.5 | > 100 | 34.5 | 50.3 | 26.6 | 34.2 | 18 | > 100 | 23.5 | 25.9 | 35.1 |
| COc1ccc(/C=C/C(=O)N[C@@H]2C(=O)N3[C@@H]2SC(C)(C)[C@@H]3C(=O)O)cc1OC | > 100 | > 100 | > 100 | > 100 | > 100 | > 100 | > 100 | > 100 | > 100 | > 100 | > 100 | > 100 |
| CC(C)(C)OC(=O)/C=C/[C@@H](CCC(=O)/C=C/[C@H](/C=C\CCCC(=O)O)NC1(c2ccccc2)c2ccccc2-c2ccccc21)O[Si](C)(C)C(C)(C)C | 29.8 | 24.5 | 36.6 | 35.2 | 59 | 36.5 | 52 | 36.6 | 36.2 | 29.4 | 30.2 | 34.6 |
| C/C(=N\Nc1nc2ccccc2[nH]1)c1ccc2ccccc2n1 | 5.1 | 13.5 | 20.1 | 14.3 | 16.2 | 8.12 | 13.2 | 16.1 | 5.2 | 6.47 | 35.2 | 8.85 |
| Cc1cn(C2CC(/[N+]([O-])=N\Nc3ccc([N+](=O)[O-])cc3)C(CO)O2)c(=O)[nH]c1=O (stereo unspecified) | > 100 | > 100 | > 100 | > 100 | > 100 | > 100 | > 100 | > 100 | > 100 | > 100 | > 100 | > 100 |
| CN(C)C=Nc1cccc2c1NSN2 | > 100 | > 100 | > 100 | > 100 | > 100 | > 100 | > 100 | > 100 | > 100 | > 100 | > 100 | > 100 |
| COc1ccc(OC)c2c1-c1nnnn1CCC2(C)C | > 100 | > 100 | > 100 | > 100 | > 100 | > 100 | > 100 | > 100 | > 100 | > 100 | > 100 | > 100 |
| CCN(CC)CCCNc1c2cc(OC)ccc2nc2cccc([N+](=O)[O-])c12 | 0.174 | 0.23 | 0.304 | 0.593 | 0.102 | 0.412 | 0.569 | 0.344 | 0.224 | 0.24 | 0.314 | 0.0284 |

Source: PubChem BioAssay (NCI)
